Results on 66 molecules are retold here after US20260053861A1, “CELL COMPOSITIONS AND METHODS OF USING THE SAME” (THE REGENTS OF THE UNIVERSITY OF CALIFORNIA, priority 2022, published 2026).

Structures can show the parent of a compound that is named as a salt.

The test system of the first test is hPSC-SCs.
Settings: not given
`CC(C)c1cccc(C(C)C)c1O` [Propofol] displayed a z.score.t of −0.411.
The same measure, in the same setting: the same measure for `C[C@@H]1O[C@@H](O[C@@H]2C=C3CC[C@@H]4[C@H](CC[C@]5(C)[C@@H](c6ccc(=O)oc6)CC[C@]45O)[C@@]3(C)CC2)[C@H](O)[C@H](O)[C@H]1O` [Proscillaridin A]: −1.543.
On the same count and under the same terms, to `CC[C@@H](C)C(=O)O[C@H]1[C@H](O)[C@H]2[C@@H](CN3C[C@@H](C)CC[C@H]3[C@@]2(C)O)[C@@H]2C[C@]34O[C@]5(O)[C@@H](OC(=O)[C@@](C)(O)CC)CC[C@@]3(C)[C@@H]5[C@@H](OC(C)=O)[C@@H](OC(C)=O)[C@H]4[C@@]21O` [Protoveratrine A] belongs −0.3319; to `CN1[C@@H]2CCC[C@H]1CC(=O)C2.Cl` [Pseudopelletierine hydrochloride], −0.6864.
Same read-out and setting: to `Cc1ncc(CO)c(CO)c1O.Cl` [Pyridoxine hydrochloride] belongs −0.5337.
Regarding `CCC1(CC)C(=O)C=CNC1=O` [Pyrithyldione], the z.score.t is recorded as 0.7158.
Still for that read-out and setting: to `O.O.O=c1c(O)c(-c2ccc(O)c(O)c2)oc2cc(O)cc(O)c12` [Quercetine dihydrate] belongs 1.371; to `COc1ccc2c3c([nH]c2c1)[C@H]1C[C@H]2[C@H](C[C@@H](O)[C@H](OC)[C@H]2C(=O)O)CN1CC3.Cl` [Reserpinic acid hydrochloride], −0.4278.
For the molecule `COc1ccn(C)c(=O)c1C#N` [Ricinine], the z.score.t is on record as 0.8646.
On the same count and under the same terms, to `Cc1nc2n(c(=O)c1CCN1CCC(c3noc4cc(F)ccc34)CC1)CCCC2` [Risperidone] belongs 0.02517.

The test is the same for the next values; noted with them: HTS viability of hPSC-SCs in the presence of 30 mM glucose; Prestwick library; Table S4.
With `C[C@]12C=CC(=O)C=C1CC[C@@H]1[C@@H]2[C@@H](O)C[C@@]2(C)[C@H]1CC[C@]2(O)C(=O)CO` [Prednisolone], the z.score.t is on record as 1.287.
For `C[C@]12C=CC(=O)C=C1CC[C@@H]1[C@@H]2C(=O)C[C@@]2(C)[C@H]1CC[C@]2(O)C(=O)CO` [Prednisone], the z.score.t was −0.6093.
Consider `CC(=O)[C@H]1CC[C@H]2[C@@H]3CC=C4C[C@@H](O)CC[C@]4(C)[C@H]3CC[C@]12C` [Pregnenolone], for which the z.score.t is given as −0.6864.
Still for that read-out and setting: the same measure for `CCCNC(C)C(=O)Nc1ccccc1C` (stereo not drawn) [Prilocaine hydrochloride]: 1.984; for `COc1cc(NC(C)CCCN)c2ncccc2c1` (stereo not drawn) [Primaquine diphosphate]: −1.784; for `CCC1(c2ccccc2)C(=O)NCNC1=O` [Primidone]: 0.2582.
As to `CCCC(C(=O)OCCN(CC)CC)(c1ccccc1)c1ccccc1` [Proadifen hydrochloride], the z.score.t is −1.138.
Consider `CCCN(CCC)S(=O)(=O)c1ccc(C(=O)O)cc1` [Probenecid], for which the z.score.t is given as −0.3319.
Still for that read-out and setting: the same measure for `CC(C)(Sc1cc(C(C)(C)C)c(O)c(C(C)(C)C)c1)Sc1cc(C(C)(C)C)c(O)c(C(C)(C)C)c1` [Probucol]: 0.1344.
On the same count and under the same terms, to `CCN(CC)CCNC(=O)c1ccc(N)cc1` [Procainamide hydrochloride] belongs −0.2904; to `CCN(CC)CCOC(=O)c1ccc(N)cc1` [Procaine hydrochloride], 0.5587.
Take `CNNCc1ccc(C(=O)NC(C)C)cc1` [Procarbazine hydrochloride]: the z.score.t is on record as −0.01802.
Same read-out and setting: to `CN1CCN(CCCN2c3ccccc3Sc3ccc(Cl)cc32)CC1` [Prochlorperazine dimaleate] belongs −0.7775; to `OC(CCN1CCCC1)(c1ccccc1)C1CCCCC1` (stereo not drawn) [Procyclidine hydrochloride], −0.0788; to `CC(=O)[C@H]1CC[C@H]2[C@@H]3CCC4=CC(=O)CC[C@]4(C)[C@H]3CC[C@]12C` [Progesterone], 0.1767.
The same measure, in the same setting: to `CCCN(CCC)C(=O)C(CCC(=O)O)NC(=O)c1ccccc1` (stereo not drawn) [Proglumide] belongs −0.8991; to `[H]/N=C(\N/C(=N/[H])Nc1ccc(Cl)cc1)NC(C)C` [Proguanil hydrochloride], −0.1187.
The same measure, in the same setting: the same measure for `CN(C)CCCN1c2ccccc2Sc2ccccc21` [Promazine hydrochloride]: −1.845.
As for `CC(CN1c2ccccc2Sc2ccccc21)N(C)C` (stereo not drawn) [Promethazine hydrochloride], the z.score.t worked out at 1.578.
The same measure, in the same setting: the same measure for `CC(C)NCC(O)c1ccc2ccccc2c1` (stereo not drawn) [Pronethalol hydrochloride]: −0.4684; for `CCCNCC(O)COc1ccccc1C(=O)CCc1ccccc1` (stereo not drawn) [Propafenone hydrochloride]: 1.211.
Still for that read-out and setting: the same measure for `CC(C)[N+](C)(CCOC(=O)C1c2ccccc2Oc2ccccc21)C(C)C` [Propantheline bromide]: 0.9525.
On to `CCCOc1ccc(C(=O)OCCN(CC)CC)cc1N` [Proparacaine hydrochloride], for which the z.score.t stood at 0.7158.
On the same count and under the same terms, to `CC[N+](C)(CC)CCC[n+]1c(-c2ccccc2)c2cc(N)ccc2c2ccc(N)cc21.[I-].[I-]` [Propidium iodide] belongs −0.7567; to `CCCOc1cc(N)ccc1C(=O)OCCN(CC)CC` [Propoxycaine hydrochloride], −0.8229; to `CC(C)NCC(O)COc1cccc2ccccc12` (stereo not drawn) [Propranolol hydrochloride], −1.412.
In the case of `CCCc1cc(=O)[nH]c(=S)[nH]1` [Propylthiouracil], the z.score.t was −0.2904.
Same read-out and setting: the same measure for `CNCCCC1c2ccccc2C=Cc2ccccc21` [Protriptyline hydrochloride]: −0.3678.
On the same count and under the same terms, to `CC(O)Cn1cnc2c1c(=O)n(C)c(=O)n2C` (stereo not drawn) [Proxyphylline] belongs −0.3023; to `COc1ccc(C[C@H](N)C(=O)N[C@H]2[C@@H](O)[C@H](n3cnc4c(N(C)C)ncnc43)O[C@@H]2CO)cc1` [Puromycin dihydrochloride], −2.056.
On to `NC(=O)c1cnccn1` [Pyrazinamide], for which the z.score.t is 1.73.
In the case of `COc1ccc(CN(CCN(C)C)c2ccccn2)cc1` [Pyrilamine maleate], the z.score.t was 0.07016.
Same read-out and setting: the same measure for `CCc1nc(N)nc(N)c1-c1ccc(Cl)cc1` [Pyrimethamine]: 0.5856.
On the same count and under the same terms, the same measure for `CCN(CC)CCCC(C)Nc1c2ccc(Cl)cc2nc2ccc(OC)cc12` (stereo not drawn) [Quinacrine dihydrochloride dihydrate]: −1.898; for `CCOC(=O)[C@H](CCc1ccccc1)N[C@@H](C)C(=O)N1Cc2ccccc2C[C@H]1C(=O)O` [Quinapril HCl]: −0.1464.
Same read-out and setting: to `CCC1NC(=O)c2cc(S(N)(=O)=O)c(Cl)cc2N1` (stereo not drawn) [Quinethazone] belongs −0.9264; to `O=C(O)[C@]1(O)C[C@@H](O)[C@@H](O)[C@H](O)C1` [Quinic acid], 0.5268.
On to `C=C[C@H]1C[N@@]2CC[C@H]1C[C@@H]2[C@@H](O)c1ccnc2ccc(OC)cc12` [Quinidine hydrochloride monohydrate], for which the z.score.t was −0.6093.
Still for that read-out and setting: to `CC(=O)SCC(Cc1ccccc1)C(=O)NCC(=O)OCc1ccccc1` (stereo not drawn) [Racecadotril] belongs −0.1853; to `O=C(c1ccc(OCCN2CCCCC2)cc1)c1c(-c2ccc(O)cc2)sc2cc(O)ccc12` [Raloxifene hydrochloride], −1.825.
`CCOC(=O)[C@H](CCc1ccccc1)N[C@@H](C)C(=O)N1[C@H](C(=O)O)C[C@@H]2CCC[C@@H]21` [Ramipril]: the z.score.t was −0.5351.
On the same count and under the same terms, to `CNC(=C[N+](=O)[O-])NCCSCc1ccc(CN(C)C)o1` [Ranitidine hydrochloride] belongs 0.4486; to `COc1ccccc1OCC(O)CN1CCN(CC(=O)Nc2c(C)cccc2C)CC1` (stereo not drawn) [Ranolazine], 1.442; to `COC(=O)[C@H]1[C@H]2C[C@H]3c4[nH]c5ccccc5c4CCN3C[C@H]2CC[C@@H]1O` [Rauwolscine hydrochloride], 1.384.
Still for that read-out and setting: to `CCN1CCC[C@H]1CNC(=O)c1c(OC)ccc(Br)c1OC` [Remoxipride Hydrochloride] belongs 0.05395; to `CCOc1cc(CC(=O)N[C@@H](CC(C)C)c2ccccc2N2CCCCC2)ccc1C(=O)O` [Repaglinide], −1.216; to `COC(=O)[C@H]1[C@H]2C[C@@H]3c4[nH]c5cc(OC)ccc5c4CCN3C[C@H]2C[C@@H](OC(=O)/C=C/c2cc(OC)c(OC)c(OC)c2)[C@@H]1OC` [Rescinnamin], 0.006455.
As to `COC(=O)[C@H]1[C@H]2C[C@@H]3c4[nH]c5cc(OC)ccc5c4CCN3C[C@H]2C[C@@H](OC(=O)c2cc(OC)c(OC)c(OC)c2)[C@@H]1OC` [Reserpine], the z.score.t was −1.042.
Turning to `Oc1ccc(C=Cc2cc(O)cc(O)c2)cc1` [Resveratrol], the z.score.t worked out at 0.9702.
Still for that read-out and setting: to `CC1=C(/C=C/C(C)=C/C=C/C(C)=C/C(=O)O)C(C)(C)CCC1` [Retinoic acid] belongs 1.751; to `NC(=O)c1ncn([C@@H]2O[C@H](CO)[C@@H](O)[C@H]2O)n1` [Ribavirin], 2.03.
Turning to `Cc1cc2nc3c(=O)[nH]c(=O)nc-3n(C[C@H](O)[C@H](O)[C@H](O)CO)c2cc1C` [Riboflavine], the z.score.t is 1.211.
On the same count and under the same terms, the same measure for `NC[C@H]1O[C@H](O[C@H]2[C@H](O[C@@H]3O[C@H](CO)[C@@H](O)[C@H]3O)[C@@H](O)[C@H](N)C[C@@H]2N)[C@H](N)[C@@H](O)[C@@H]1O` [Ribostamycin sulfate salt]: −0.7757; for `CO[C@H]1/C=C/O[C@@]2(C)Oc3c(C)c(O)c4c(c3C2=O)C2=NC3(CCN(CC(C)C)CC3)NC2=C(NC(=O)/C(C)=C\C=C\[C@H](C)[C@H](O)[C@@H](C)[C@@H](O)[C@@H](C)[C@H](OC(C)=O)[C@@H]1C)C4=O` [Rifabutin]: −0.1474; for `CO[C@H]1/C=C/O[C@@]2(C)Oc3c(C)c(O)c4c(O)c(c(/C=N/N5CCN(C)CC5)c(O)c4c3C2=O)NC(=O)/C(C)=C\C=C\[C@H](C)[C@H](O)[C@@H](C)[C@@H](O)[C@@H](C)[C@H](OC(C)=O)[C@@H]1C` [Rifampicin]: 1.139.
On the same count and under the same terms, the same measure for `CCC(=O)[C@@]1(C)[C@H](C)C[C@H]2[C@@H]3CCC4=CC(=O)C=C[C@]4(C)[C@H]3[C@@H](O)C[C@@]21C` [Rimexolone]: −1.354.
